Laboratory results: patent US20040229791A1, “Compositions and methods of modulating TGF-beta activity by fatty acids” (priority 2002, published 2004)

Columns and labels:
[1] = target: T1, 125I-TGF-β isoform-α2M* complexes (Homo sapiens, UniProt P01023); experiment: Complex formation of 125I-TGF-β isoforms and α2M* by DSS cross-linking and 7.5% SDS-PAGE; format: binding; details: DSS cross-linking, effective concentrations comparable to non-denaturing PAGE
T1 construct: was purified from pooled citrate-treate human plasma; from tissue; host or cells: pooled citrate-treated human plasma
T1 sequence (P01023 24-1474): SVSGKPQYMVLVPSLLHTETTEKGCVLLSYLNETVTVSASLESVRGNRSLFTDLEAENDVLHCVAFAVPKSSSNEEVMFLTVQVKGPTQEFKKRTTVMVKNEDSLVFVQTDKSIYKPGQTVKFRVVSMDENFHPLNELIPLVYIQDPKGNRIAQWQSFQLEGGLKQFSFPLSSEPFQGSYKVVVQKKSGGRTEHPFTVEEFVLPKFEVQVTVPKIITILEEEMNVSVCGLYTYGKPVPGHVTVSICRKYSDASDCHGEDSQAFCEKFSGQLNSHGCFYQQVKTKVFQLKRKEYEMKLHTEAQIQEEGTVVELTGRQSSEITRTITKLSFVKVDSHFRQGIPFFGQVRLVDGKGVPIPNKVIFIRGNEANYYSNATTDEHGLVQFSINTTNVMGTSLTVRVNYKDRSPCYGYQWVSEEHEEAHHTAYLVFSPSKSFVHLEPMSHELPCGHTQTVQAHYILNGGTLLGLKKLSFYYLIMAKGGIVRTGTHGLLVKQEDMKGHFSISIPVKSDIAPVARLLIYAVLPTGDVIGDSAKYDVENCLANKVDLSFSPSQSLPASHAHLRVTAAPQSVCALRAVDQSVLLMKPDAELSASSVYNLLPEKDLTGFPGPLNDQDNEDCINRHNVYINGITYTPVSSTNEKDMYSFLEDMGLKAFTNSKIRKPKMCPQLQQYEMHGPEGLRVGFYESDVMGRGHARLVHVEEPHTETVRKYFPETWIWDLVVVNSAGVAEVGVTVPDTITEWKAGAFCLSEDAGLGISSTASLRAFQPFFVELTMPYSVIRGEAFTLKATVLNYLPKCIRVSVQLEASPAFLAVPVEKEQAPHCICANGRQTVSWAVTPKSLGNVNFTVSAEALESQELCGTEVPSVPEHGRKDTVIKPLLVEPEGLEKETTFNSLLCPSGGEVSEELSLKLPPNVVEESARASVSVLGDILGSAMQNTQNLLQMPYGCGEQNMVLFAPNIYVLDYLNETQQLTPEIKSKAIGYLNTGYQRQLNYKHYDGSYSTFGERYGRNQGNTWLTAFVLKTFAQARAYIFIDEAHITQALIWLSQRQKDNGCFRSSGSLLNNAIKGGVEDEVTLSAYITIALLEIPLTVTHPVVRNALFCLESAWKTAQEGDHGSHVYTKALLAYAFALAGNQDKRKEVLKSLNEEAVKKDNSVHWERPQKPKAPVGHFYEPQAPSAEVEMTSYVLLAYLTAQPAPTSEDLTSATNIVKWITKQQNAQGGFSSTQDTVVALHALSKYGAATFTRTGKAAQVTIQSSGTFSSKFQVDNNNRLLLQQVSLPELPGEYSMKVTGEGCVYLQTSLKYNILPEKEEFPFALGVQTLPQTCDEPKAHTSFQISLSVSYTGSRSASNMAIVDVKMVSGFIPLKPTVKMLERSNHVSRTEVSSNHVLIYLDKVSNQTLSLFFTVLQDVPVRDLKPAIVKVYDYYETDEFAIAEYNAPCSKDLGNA
Description: TGF- ? isoforms bind to α2M* with different affinities: TGF ? β2>TGF ? β1 ( active sites of TGF ? β1 and TGF- ? 2 responsible for high-affinity binding to ? 2M* are disti from the low-affinity ? 2M* binding site in TGF- ? 3 (19). To determine if fatty acids differentially affect the binding of TGF- ? isoforms to ? 2M*, the effects of various concentrations of arachidonic acid and myristic acid on complex formation of ^125I-labeled TGF ? β isoforms and ? 2M were determined*. […] It inhibited 30% of the complex form . α2M* and TGF ? β2 and TGF ? β3 at 100 and >250 μM, respectively. Arachidon polyunsaturated fatty acid, was a stronger inhibitor of complex formation of ? 2M* and TGF-.β2/TGF ? β3. It inhibited 50% of the complex formation of ? 2M* and ^125I-TGF- ? 2 at 50 μM (FIG. 3A). The observation that myristic acid and arachidonic acid inhibited complex formation of ^125I-TGF- ? […] 2M* complexes in the reaction mixtures were then analyzed by 7.5% SDS-PAGE and autoradiography.
Complex formation of ^125I-TGF-β and ? […] After 30 min at room temperature, the complex formation of ^125I-TGF- ? and. α2M* was determined by 5% non-denaturing polyacrylamide gel electrophoresis (PAGE) or by 7.5% SDS-PAGE following cross-linking by 0.6 mM DSS. After electrophoresis, the gel was stained with Coomassie blue and analyzed by autoradiography. […] 2M* was quantified using a PhosphoImager (Fuji).

TGF-β1-α2M* complex = target: T2, TGF-β1-α2M* complex (Homo sapiens, UniProt P01023); experiment: Inhibition of 125I-TGF-β1 and α2M* complex formation (5% non-denaturing PAGE, autoradiography); format: binding; details: ~1 nM 125I-TGF-β1, 10 μg α2M* in 0.05 ml, 30 min room temperature, non-denaturing PAGE; read-out: IC50 for inhibiting complex formation between TGF-β1 and α2M*
T2 construct: was purified from pooled citrate-treate human plasma; from tissue; host or cells: pooled citrate-treated human plasma
T2 sequence (P01023 24-1474): T1 sequence (P01023 24-1474)
Description: Saturated and unsaturated fatty acids are present in plasma and tissues (25,26). The effects of various concentrations of saturated fatty acids on the formation of complexes between ^125I-TGF ? β1 and ? 2M* were examined. ^125I-TGF- ? 1 (1 nM) was incubated μg/ml) in the presence of various concentrations of n-caprylic acid ([…]), lauric acid (12 carbon atoms), myristic acid (14 carbon atoms), palmitic acid (16 carbon atoms) and stearic acid (18 carbon atoms). After 30 min at room temperature, the reaction mixture was analyzed by 5% non-denaturing PAGE and autoradiography, a standard method form determining complex formation between TGF-β and α2M* (12). […] At 100 μM, it inhibited 20% of the complex formation between TGF ? β1 and α2M*. Esterification consistently abolished the inhibitory activities of the fatty acids.
Complex formation of ^125I-TGF-β and ? 2M*—The reaction mixture contained 10 μg of . α2M*, ˜1 nM of ^125I-TGF- ? 1, ^125I-TGF ? β2 or ^125I-TGF ? acids (dissolved in 100% ethanol) in 0.05 ml of 50 mM HEPES-NaOH buffer, pH 7.4. The final concentration of ethanol in the reaction mixture was 0.5%. These fatty acids and fatty acid derivatives were soluble under the experimental conditions. After 30 min at room temperature, the complex formation of ^125I-TGF- ? and. α2M* was determined by 5% non-denaturing polyacrylamide gel electrophoresis (PAGE) or by 7.5% SDS-PAGE following cross-linking by 0.6 mM DSS. After electrophoresis, the gel was stained with Coomassie blue and analyzed by autoradiography. The ^125I-TGF- ? - ? 2M* complex which co-migrated with free ? 2M* was quantified using a PhosphoImager (Fuji).

## CCCCC/C=C\C/C=C\C/C=C\C/C=C\CCCC(=O)O [arachidonic acid]
[1]
  blocking of cross-linked 125I-TGF-β isoform-α2M* complex formation: blocked complex formation
TGF-β1-α2M* complex
  IC50: 7.8 ± 1.4 µM
